In PubChem BioAssay (NCI) one finds TGI data, which are given here for 17 molecules.

Test systems include HT29 colon; CAKI-1 renal; HCT-15 colon; SK-MEL-2 melanoma; RXF 393 renal; 786-0 renal; NCI-H226 lung; SK-MEL-28 melanoma; DU-145 prostate; K-562 leukemia; SK-MEL-5 melanoma; UACC-257 melanoma; UO-31 renal; HOP-62 NSCLC; HS 578T breast.
Holding throughout (experiment): growth of human tumour cells (NCI), 48 h

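Exposure lasted 48 hours, with cells grown in 96-well plates and compounds tested at five concentrations. At the TGI there is no net growth.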

On to `N#CC(C#N)=Cc1ccc2c(c1)OC(Cl)O2` (stereo not given), for which the TGI with HT29 colon was 44.9 µM; in the assay on CAKI-1 renal, > 100 µM; in the assay on HCT-15 colon, 46.4 µM; in the assay on SK-MEL-2 melanoma, 37.6 µM; with RXF 393 renal it was 52.3 µM; in the assay on 786-0 renal it was 35.2 µM. Moreover, the TGI was 38.2 µM in the assay with NCI-H226 lung; 36.9 µM with SK-MEL-28 melanoma; 63 µM with DU-145 prostate; > 100 µM in the assay on K-562 leukemia; 35.1 µM in the assay with SK-MEL-5 melanoma; 41 µM with UACC-257 melanoma. The molecule further came in with a TGI in the assay on UO-31 renal of 30.7 µM.

On to `CN(C)CCNC(=O)c1cccc2c(NCC(=O)O)c3ccccc3nc12`, for which the TGI is 82.5 µM with HOP-62 NSCLC; 50.7 µM with HS 578T breast; 17.7 µM in the assay with HT29 colon; > 100 µM with HCT-15 colon; 37.4 µM with SK-MEL-2 melanoma; 62.7 µM in the assay with 786-0 renal. For the same molecule, the TGI with NCI-H226 lung is 30.9 µM; in the assay on SK-MEL-28 melanoma it was 52.6 µM; in the assay on DU-145 prostate, > 100 µM; in the assay with K-562 leukemia, > 100 µM; with SK-MEL-5 melanoma, 67.3 µM; in the assay with UO-31 renal, > 100 µM.

Take `CNC(=O)N1CN(c2ccccc2)C2(CCN(CCCC(=O)c3ccc(F)cc3)CC2)C1=O`: the TGI is 22.8 µM in the assay with HOP-62 NSCLC; 26.9 µM with HT29 colon; > 100 µM in the assay with CAKI-1 renal; 33.6 µM in the assay on HCT-15 colon; 54.6 µM in the assay with RXF 393 renal; 87.1 µM with 786-0 renal. Also, the TGI was 79.4 µM in the assay on NCI-H226 lung; 38.4 µM in the assay on SK-MEL-28 melanoma; > 100 µM with DU-145 prostate; 49 µM with K-562 leukemia; 26.7 µM in the assay on SK-MEL-5 melanoma; 24.2 µM with UACC-257 melanoma. The molecule further registered a TGI with UO-31 renal of 28.1 µM.

`CCOC(=O)C1=C(O)C(=O)c2ccsc2C1=O`: the TGI in the assay on HOP-62 NSCLC, in the assay on HT29 colon, in the assay on CAKI-1 renal, with HCT-15 colon, in the assay on SK-MEL-2 melanoma and with RXF 393 renal was > 100 µM each time. Also, the TGI with 786-0 renal, in the assay on NCI-H226 lung, in the assay with SK-MEL-28 melanoma, in the assay on K-562 leukemia, with SK-MEL-5 melanoma and in the assay with UACC-257 melanoma was > 100 µM throughout. The TGI with UO-31 renal is > 100 µM.

Regarding `COc1ccc(NC(=O)C/C(C)=N\N=C(N)N)c([N+](=O)[O-])c1`, the TGI with HOP-62 NSCLC, with HT29 colon, with CAKI-1 renal, in the assay on HCT-15 colon, in the assay with SK-MEL-2 melanoma and in the assay with RXF 393 renal was > 100 µM each time. For the same molecule, the TGI in the assay on 786-0 renal, in the assay with NCI-H226 lung, in the assay with SK-MEL-28 melanoma, in the assay on K-562 leukemia, in the assay with SK-MEL-5 melanoma and in the assay on UACC-257 melanoma was > 100 µM in each case. The TGI in the assay with UO-31 renal was > 100 µM.

Take `COc1ccc2[nH]c3c(c2c1)CCn1c-3nc2ccccc2c1=O`: the TGI with HOP-62 NSCLC, with HS 578T breast, in the assay on HCT-15 colon, in the assay on 786-0 renal, with SK-MEL-28 melanoma and in the assay with K-562 leukemia was > 25 µM throughout. The TGI in the assay on SK-MEL-5 melanoma, with UACC-257 melanoma and in the assay with UO-31 renal was > 25 µM each time.

Take `CN(C)c1ccc(C=C2C(=O)OC(C)(C)OC2=O)cc1Br`: the TGI with HOP-62 NSCLC, in the assay with HT29 colon, in the assay with CAKI-1 renal, with SK-MEL-2 melanoma, with RXF 393 renal and in the assay with 786-0 renal was > 100 µM throughout. In addition, the TGI in the assay with NCI-H226 lung, in the assay with SK-MEL-28 melanoma, in the assay on K-562 leukemia, in the assay on SK-MEL-5 melanoma, in the assay with UACC-257 melanoma and in the assay on UO-31 renal was > 100 µM in each case.

Turning to `COC(=O)C1CCC(=O)N1CN(C(C)=O)c1ccccc1` (stereo not given), the TGI in the assay with HOP-62 NSCLC, with HS 578T breast, in the assay with HT29 colon, with CAKI-1 renal, with HCT-15 colon and in the assay with SK-MEL-2 melanoma was > 100 µM each time. In addition, the TGI in the assay with 786-0 renal, with NCI-H226 lung, with SK-MEL-28 melanoma, in the assay on DU-145 prostate, with K-562 leukemia and with SK-MEL-5 melanoma was > 100 µM throughout. The TGI in the assay with UACC-257 melanoma and with UO-31 renal was > 100 µM throughout.

For the molecule `Cn1c(/C=C(\O)c2ccc(Cl)cc2)nc2ccccc21`, the TGI was > 100 µM in the assay on HT29 colon; 97 µM with CAKI-1 renal; > 100 µM in the assay on HCT-15 colon; > 100 µM with SK-MEL-2 melanoma; > 100 µM with RXF 393 renal; > 100 µM with 786-0 renal. Moreover, the TGI was > 100 µM in the assay on NCI-H226 lung; > 100 µM in the assay with SK-MEL-28 melanoma; > 100 µM in the assay with K-562 leukemia; 92.4 µM with SK-MEL-5 melanoma; 67.1 µM with UACC-257 melanoma; 66.1 µM in the assay with UO-31 renal.

Take `CCOC(=O)c1nc2ccc([N+](=O)[O-])cc2c2c1CCO2`: the TGI in the assay with HOP-62 NSCLC, in the assay on HT29 colon, with CAKI-1 renal, in the assay on HCT-15 colon, in the assay with SK-MEL-2 melanoma and in the assay on RXF 393 renal was > 100 µM each time. The TGI in the assay with 786-0 renal, in the assay with NCI-H226 lung, with SK-MEL-28 melanoma, with K-562 leukemia, with SK-MEL-5 melanoma and in the assay with UACC-257 melanoma was > 100 µM each time.

As to `CN(CCO)c1nc2c(c(=O)[nH]1)CCC2`, the TGI with HOP-62 NSCLC, in the assay with HT29 colon, in the assay with CAKI-1 renal, in the assay with HCT-15 colon, with SK-MEL-2 melanoma and in the assay on RXF 393 renal was > 100 µM in each case. In addition, the TGI in the assay with 786-0 renal, in the assay on NCI-H226 lung, in the assay with SK-MEL-28 melanoma, in the assay with K-562 leukemia, in the assay with SK-MEL-5 melanoma and with UACC-257 melanoma was > 100 µM each time. Further, the TGI in the assay with UO-31 renal was > 100 µM.

Take `CCO[C@]12C[C@H](OC)[C@@]3(O)CC(C1[C@H]3OCc1ccccc1)C13C4C2[C@H](OC)C1[C@](COC)(CN4CC)[C@H](O)C[C@@H]3OC` (stereo not given in full): the TGI in the assay with HOP-62 NSCLC, in the assay on HT29 colon, with HCT-15 colon, in the assay with RXF 393 renal, with 786-0 renal and with NCI-H226 lung was > 100 µM each time. The TGI in the assay with SK-MEL-28 melanoma, with K-562 leukemia, with SK-MEL-5 melanoma, in the assay on UACC-257 melanoma and in the assay on UO-31 renal was > 100 µM each time.

On to `CC(=O)C1=CSC2[C@H](NC(=O)Cc3ccccc3)C(=O)N2C1C(=O)OC(c1ccccc1)c1ccccc1` (stereo not given in full), for which the TGI in the assay with HOP-62 NSCLC, with HT29 colon, with CAKI-1 renal, with SK-MEL-2 melanoma, with 786-0 renal and with NCI-H226 lung was > 100 µM in each case. Besides, the TGI in the assay on SK-MEL-28 melanoma, in the assay on K-562 leukemia, in the assay with SK-MEL-5 melanoma, with UACC-257 melanoma and in the assay on UO-31 renal was > 100 µM each time.

As for `CCOC1(COP(=O)(OCc2ccccc2)OCc2ccccc2)COC(COP(=O)(OCc2ccccc2)OCc2ccccc2)(OCC)CO1` (stereo not given), the TGI in the assay on HOP-62 NSCLC, in the assay with HT29 colon, in the assay on CAKI-1 renal, in the assay with HCT-15 colon, with SK-MEL-2 melanoma and in the assay on RXF 393 renal was > 100 µM in each case. Besides, the TGI in the assay on 786-0 renal, with NCI-H226 lung, with SK-MEL-28 melanoma, in the assay with K-562 leukemia, with SK-MEL-5 melanoma and with UACC-257 melanoma was > 100 µM in each case.

With `O=c1cc(-c2ccccc2)[nH]c2cc(O)ccc12`, the TGI is 70.9 µM with HOP-62 NSCLC; 46.1 µM in the assay with HT29 colon; 71.6 µM in the assay on CAKI-1 renal; 30.6 µM with HCT-15 colon; 94.9 µM with SK-MEL-2 melanoma; 37.5 µM in the assay with RXF 393 renal. Moreover, the TGI in the assay on 786-0 renal was > 100 µM; in the assay with NCI-H226 lung, > 100 µM; in the assay on SK-MEL-28 melanoma, > 100 µM; with K-562 leukemia, 39.2 µM; with SK-MEL-5 melanoma, 83.4 µM; in the assay with UACC-257 melanoma it was 48.2 µM. Further, the TGI with UO-31 renal came to 49.3 µM.

Turning to `CN(C)CCCNC(=O)N/N=C/c1cccc([N+](=O)[O-])c1`, the TGI with HT29 colon, with HCT-15 colon, with SK-MEL-2 melanoma, with RXF 393 renal, with 786-0 renal and in the assay with NCI-H226 lung was > 100 µM throughout. Further, the TGI in the assay with SK-MEL-28 melanoma, in the assay with K-562 leukemia, in the assay with SK-MEL-5 melanoma and in the assay with UACC-257 melanoma was > 100 µM in each case.

For `CC12NN=NC1C(=O)NC2=O` (stereo not given), the TGI in the assay with HOP-62 NSCLC, in the assay with HT29 colon, in the assay on CAKI-1 renal, in the assay on HCT-15 colon, in the assay with SK-MEL-2 melanoma and with 786-0 renal was > 100 µM throughout. Moreover, the TGI with NCI-H226 lung, in the assay with SK-MEL-28 melanoma, with K-562 leukemia, in the assay on SK-MEL-5 melanoma, with UACC-257 melanoma and with UO-31 renal was > 100 µM in each case.
